Assay results from patent US20240409560A1, “PYRIMIDINE TRICYCLIC DERIVATIVE AND PHARMACEUTICAL APPLICATION THEREOF” (CHIA TAI TIANQING PHARMACEUTICAL GROUP CO., LTD., priority 2021, published 2024).

Columns and labels:
[1] = target: T1, sGC (Homo sapiens, UniProt Q02153); test: LNCap cell-based cGMP expression assay (HTRF); conditions: minimum effective concentration to stimulate cGMP production (three times greater than the basal value) in lnCap cells; DETA-NO added
T1 construct: endogenous in cells; host or cells: LNCaP cells (14th passage), no transfection described
T1 sequence (Q02153 1-619): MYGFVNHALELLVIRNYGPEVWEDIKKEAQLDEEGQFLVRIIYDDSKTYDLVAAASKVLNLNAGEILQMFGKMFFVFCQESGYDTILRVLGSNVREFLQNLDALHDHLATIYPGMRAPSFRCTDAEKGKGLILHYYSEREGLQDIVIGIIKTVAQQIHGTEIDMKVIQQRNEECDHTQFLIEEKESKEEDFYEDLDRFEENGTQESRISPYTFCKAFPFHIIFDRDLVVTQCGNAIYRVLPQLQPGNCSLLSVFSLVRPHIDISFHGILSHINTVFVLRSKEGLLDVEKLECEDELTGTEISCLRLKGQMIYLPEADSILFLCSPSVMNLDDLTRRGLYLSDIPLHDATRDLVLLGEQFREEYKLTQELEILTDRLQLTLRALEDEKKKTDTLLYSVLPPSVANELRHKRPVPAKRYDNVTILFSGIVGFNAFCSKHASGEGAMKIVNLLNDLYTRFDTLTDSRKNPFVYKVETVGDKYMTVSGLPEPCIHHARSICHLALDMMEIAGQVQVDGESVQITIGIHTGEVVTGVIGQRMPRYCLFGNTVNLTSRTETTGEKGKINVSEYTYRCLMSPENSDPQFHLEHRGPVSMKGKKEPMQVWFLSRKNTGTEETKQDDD
T1 sequence (Q02108 1-690 partner): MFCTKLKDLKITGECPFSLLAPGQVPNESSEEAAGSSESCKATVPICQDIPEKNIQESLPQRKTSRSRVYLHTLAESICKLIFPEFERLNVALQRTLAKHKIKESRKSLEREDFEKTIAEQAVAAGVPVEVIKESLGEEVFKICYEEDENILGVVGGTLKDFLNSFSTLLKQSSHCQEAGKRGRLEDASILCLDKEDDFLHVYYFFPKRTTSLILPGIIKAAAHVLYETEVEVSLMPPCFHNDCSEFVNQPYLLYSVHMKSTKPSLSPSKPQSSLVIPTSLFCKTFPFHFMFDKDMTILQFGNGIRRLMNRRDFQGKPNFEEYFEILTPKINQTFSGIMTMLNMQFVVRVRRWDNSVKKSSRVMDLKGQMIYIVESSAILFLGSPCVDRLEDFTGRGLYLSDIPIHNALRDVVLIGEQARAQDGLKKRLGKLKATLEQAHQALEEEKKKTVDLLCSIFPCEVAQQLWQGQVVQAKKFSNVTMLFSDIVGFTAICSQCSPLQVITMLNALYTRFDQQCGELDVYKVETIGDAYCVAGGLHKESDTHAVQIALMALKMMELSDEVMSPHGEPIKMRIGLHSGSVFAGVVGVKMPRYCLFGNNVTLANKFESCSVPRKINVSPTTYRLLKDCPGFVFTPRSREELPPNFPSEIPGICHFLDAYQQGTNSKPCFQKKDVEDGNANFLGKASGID
Description: I. InCap Cell-Based cGMP Expression Assay
• 10 g of BSA was dissolved in 100 mL of double distilled water (ddH2O) to give 10% BSA.
• 10 mg of DETA-NO was weighed out and dissolved in 12.2 mL of double distilled water (ddH2O) to give 5 mM DETA-NO, which was aliquoted and cryopreserved in a freezer at −20° C.
• a) To 1 mL of a lysis buffer was added 50 μL of cGMP-D2 (D2-labeled cyclic guanosine monophosphate), and the mixture was well mixed. • b) To 1 mL of a lysis buffer was added 50 μL of anti-cGMP cryptate (Eu^3+ cryptate-labeled anti-cyclic guanosine monophosphate antibody), and the mixture was well mixed.
• (1) The compounds were diluted to 5 mM with DMSO, 10 μL of each of the compounds was transferred to a shallow well plate for Echo. • (2) The compounds were serially diluted with Echo. Each of the compounds was diluted to obtain 10 concentration gradients, and 50 nL of each compound at each concentration gradient was added to a 384 microwell plate.
• (1) LNCap medium: RPMI1640+10% fetal bovine serum+1% […]. • (2) Phosphate buffered saline, pancreatin, and the medium used in the process of cell passaging were pre-heated in a water bath at 37° C. • (3) The cells (the 14th generation) were taken out of the 37° C. 5% CO2 incubator, and the old medium was pipetted off the culture flask. • (4) 5 mL of phosphate buffered saline was pipetted into the culture flask to rinse the cells, and then the liquid was discarded. • (5) 3 mL of pancreatin was pipetted into the culture flask. After the culture flask was shaken, the liquid was discarded, and the culture flask was placed in the incubator. • (6) After about 2 min, the culture flask was taken out. […] The cell suspension was transferred to a 50 mL centrifuge tube. • (7) 0.7 mL of the cell suspension was pipetted into a counter cup and the cells were counted on a ViCell XR. […]
• (1) cGMP-D2 was transferred to the 384 microwell plate at 5 μL/well using Bravo. […] The mixtures were centrifuged at 1500 rpm for 1 min. • (3) The plate was incubated at room temperature for 1 h. • (4) 665/615 was read using envision. […]

[2] = In vivo pharmacokinetic property study in male SD rats; conditions: Sprague-Dawley, rat, plasma
Description: Objective: This study was intended to determine the pharmacokinetic parameters of the compounds in male SD rats.
Sprague Dawley rats (Male, 200-300 g, 7-9 weeks old, Shanghai SLAC)
In the project, 4 male SD rats were used. One group of 2 SD rats were dosed by intravenous injection at 0.3 mg/kg, 0.15 mg/mL and another group of 2 SD rats were orally dosed at 1 mg/kg, 0.2 mg/mL. Plasma samples were collected at 0.083 h (the intravenous injection group only), 0.25 h, 0.5 h, 1 h, 2 h, 4 h, 6 h, 8 h, 12 h, and 24 h after the dosing and then subjected to LC-MS/MS analysis, and data were recorded. Relevant pharmacokinetic parameters were calculated using the Phoenix WinNonlin 6.3 software based on the recorded data.

[3] = Tissue distribution study in rats, oral administration; assay type: in vivo, Sprague Dawley rats; conditions: male SD rats, po 1 mg/kg; samples at 2, 6, 12 h
Description: Objective: This study was intended to test the distribution ratio of the compounds in plasma, heart, cerebrospinal fluid, and brain tissue in the case of oral administration.
Sprague Dawley Rats (Male, 200-300 g, 7-9 Weeks Old, Shanghai SLAC)
In the project, 6 male SD rats were orally dosed at 1 mg/kg, 0.2 mg/mL. Samples of cerebrospinal fluid, brain, heart tissue, and plasma were collected at 2 h, 6 h, and 12 h after the dosing and then subjected to LC-MS/MS analysis, and data were recorded. Relevant pharmacokinetic parameters were calculated using the Phoenix WinNonlin 6.3 software based on the recorded data.

MEC of the stimulating activity for sGC [1] [nM]	clearance ([2]; iv 0.3 mg/kg) [mL/min/kg]	half-life ([2]; iv 0.3 mg/kg) [h]	Vd ([2]; iv 0.3 mg/kg, read-out: Vdss) [L/kg]	bioavailability ([2]; po 1 mg/kg) [%]	half-life ([2]; po 1 mg/kg) [h]	AUC0-last, heart [3]	AUC0-last, plasma [3]	SMILES
548	–	–	–	–	–	–	–	CO[C@]12C(=O)Nc3nc(-c4nn(CCC(F)(F)C(F)(F)F)c5ncc(F)cc45)nc(c31)NC(=O)C2(C)C [Compound 007]
214	4.58	6.28	2.36	65	6.7	6970 h*nmol/L or h*nmol/kg	1889 h*nmol/L or h*nmol/kg	CO[C@@]12C(=O)Nc3nc(-c4nn(CCC(F)(F)C(F)(F)F)c5ncc(F)cc45)nc(c31)NC(=O)C2(C)C [Compound 006]

SMILES	MEC of the stimulating activity for sGC [1] [nM]	clearance ([2]; iv 0.3 mg/kg) [mL/min/kg]	half-life ([2]; iv 0.3 mg/kg) [h]	Vd ([2]; iv 0.3 mg/kg, read-out: Vdss) [L/kg]	bioavailability ([2]; po 1 mg/kg) [%]	half-life ([2]; po 1 mg/kg) [h]	AUC0-last, heart [3]	AUC0-last, plasma [3]
CC1(C)C(=O)Nc2nc(-c3nn(Cc4ccccc4F)c4ncc(F)cc34)nc3c2C1(O)C(=O)N3 (stereo not shown) [Compound 016]	19.3	–	–	–	–	–	–	–
